Patent US8026244B2, “Thioxanthine derivatives and their use as inhibitors of MPO” (AstraZeneca AB, priority 2006, dated 2011)

Target: T1, human MPO (Homo sapiens, UniProt P05164)
T1 sequence (P05164 49-745): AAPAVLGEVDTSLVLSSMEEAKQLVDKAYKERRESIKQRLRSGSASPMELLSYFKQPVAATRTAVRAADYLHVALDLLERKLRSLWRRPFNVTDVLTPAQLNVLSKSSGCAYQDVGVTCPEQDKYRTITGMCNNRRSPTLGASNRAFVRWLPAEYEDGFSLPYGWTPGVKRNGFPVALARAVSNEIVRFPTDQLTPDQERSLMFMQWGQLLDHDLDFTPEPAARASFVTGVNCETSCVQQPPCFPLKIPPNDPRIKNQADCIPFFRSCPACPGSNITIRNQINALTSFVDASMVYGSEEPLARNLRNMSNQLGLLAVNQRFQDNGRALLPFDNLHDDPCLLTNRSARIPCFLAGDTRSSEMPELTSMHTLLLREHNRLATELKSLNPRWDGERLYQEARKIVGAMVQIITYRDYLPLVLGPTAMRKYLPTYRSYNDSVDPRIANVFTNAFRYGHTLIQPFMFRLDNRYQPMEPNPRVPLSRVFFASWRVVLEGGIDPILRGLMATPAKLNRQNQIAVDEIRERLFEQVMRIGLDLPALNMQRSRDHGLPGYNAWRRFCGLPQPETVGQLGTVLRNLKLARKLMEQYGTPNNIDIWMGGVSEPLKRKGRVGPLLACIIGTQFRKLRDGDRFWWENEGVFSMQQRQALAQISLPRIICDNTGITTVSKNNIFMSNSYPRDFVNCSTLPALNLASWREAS
Assay: MPO inhibition screen (TMB oxidation, absorbance), compounds alone or with added tyrosine
Type: biochemical
Conditions: in the presence of tyrosine (final concentration 8 μM); human MPO 2.5 nM; H2O2 100 μM; pH 6.5
Method: Methods for the determination of MPO inhibitory activity are disclosed in patent application WO 02/090575. The pharmacological activity of compounds according to the invention was tested in the following screen in which the compounds were either tested alone or in the presence of added tyrosine:
Assay buffer: 20 mM sodium/potassium phosphate buffer pH 6.5 containing 10 mM taurine and 100 mM NaCl.
Developing reagent: 2 mM 3,3′,5,5′-tetramethylbenzidine (TMB), 200 μM KI, 200 mM acetate buffer pH 5.4 with 20% DMF.
To 10 μl of diluted compounds in assay buffer, 40 μl of human MPO (final concentration 2.5 nM), with or without 20 μM tyrosine (final concentration, if present, 8 μM), was added and the mixture was incubated for 10 minutes at ambient temperature. Then 50 μl of H2O2 (final concentration 100 μM), or assay buffer alone as a control, were added. After incubation for 10 minutes at ambient temperature, the reaction was stopped by adding 10 μl 0.2 mg/ml of catalase (final concentration 18 μg/ml). The reaction mixture was left for an additional 5 minutes before 100 μl of TMB developing reagent was added. The amount of oxidised 3,3′,5,5′-tetramethylbenzidine formed was then measured after about 5 minutes using absorbance spectroscopy at about […]. IC50 values were then determined using standard procedures.

IC50 [nM]	SMILES
100	O=c1[nH]c(=S)n(Cc2ccncc2)c2nc[nH]c12 [Example 3, 3-(pyridin-4-ylmethyl)-2-thioxo-1,2,3,7-tetrahydro-6H-purin-6-one]
10000	CC(c1nc2ccccc2[nH]1)n1c(=S)[nH]c(=O)c2[nH]cnc21 (stereo not drawn) [Example 9, 3-[1-(1H-benzimidazol-2-yl)ethyl]-2-thioxo-1,2,3,7-tetrahydro-6H-purin-6-one]
2200	CC(Cn1c(=S)[nH]c(=O)c2[nH]cnc21)NCc1cccn1C (stereo not drawn) [Example 44, 3-(2-{[(1-methyl-1H-pyrrol-2-yl)methyl]amino}propyl)-2-thioxo-1,2,3,7-tetrahydro-6H-purin-6-one]
